# Assay results as given in patent US20080214394A1, “N-(4-Pyridyl)Methylsulfonamides For Combating Arthropodal Pests” (BASF Aktiengesellschaft, priority 2005, published 2008).
# Key:
# [1] = test system: Boll Weevil (Anthonomus grandis); assay: whole plant or invertebrate; type: in vivo; conditions: eggs sprayed with 20 μl, 3 to 5 days
# [2] = test system: Tobacco Budworm (Heliothis virescens); assay: whole plant or invertebrate; type: in vivo; conditions: 144 h, eggs sprayed with 10 μl, 6 days
smiles,measurement,setting,value
"O=S(=O)(NCc1ccnc2ccccc12)c1ccc(Br)s1 [Compound I-70, 5-bromo-thiophene-2-sulfonic acid (quinoline-4-ylmethyl)-amide]",mortality at 2500 ppm,[1],> 50%
same,mortality at 2500 ppm,[2],> 75%
